Structures can show the parent of a compound that is named as a salt.
Test system: MK-801-induced hyperactivity
Assay: Antagonism of MK801-induced hyperlocomotion (locomotor activity cages)
Format: in vivo, rat
Settings: 180 min; for MK-801-induced hyperactivity as measured by a decrease in ambulation: male Sprague-Dawley rats, AR116081 10 or 20 mg/kg oral, each alone; for MK-801-induced hyperactivity as measured by a decrease in ambulation / effect of MK801 on fine movements, a measure of stereotypies / effect on rear measures (rearing activity): Haloperidol 0.05 mg/kg s.c., MK-801 0.3 mg/kg s.c.; for effect of MK801 on fine movements, a measure of stereotypies / effect on rear measures (rearing activity): AR116081 20 mg/kg oral, alone or combined
Procedure: Antagonism of MK801-Induced Hyperlocomotion: a Model of Potential Antipsychotic (“antipositive”) Activity
Because part of the symptomatology of schizophrenia may be related to altered glutamate transmission at the NMDA receptor, the reversal of MK-801-induced hyperlocomotor activity in rodents has been used routinely as an animal model for detecting potential antipsychotic activity (Hoffinan, D. C., J. Neural. Transm. 89:1-10, 1992).
Motor function was assessed using automated locomotor activity cages (Hamilton-Kinder, San Diego) comprised of standard rodent cages surrounded by photocell beams, allowing for automated recording of motor activity. The animals were under no motivational constraints and were free to move around the cages. In this test, male Sprague-Dawley rats (200-325 g body weight) were food deprived overnight prior to testing. On the testing day, they were administered AR116081 orally at a dose of 10 or 20 mg/kg base (substance # 127190 suspended in 1% Tween 80 and 99% distilled water solution, volume injection 10 cc/kg) immediately followed by subcutaneous administration of Haloperidol at a dose of 0.05 mg/kg base (RBI lot # TOW-1990 dissolved in distilled water and pH at 5-6, volume injection 1 cc/kg). The treated rats were placed in the locomotor activity cages 30 min after co-administration of compounds for a 30 min habituation period to the cages and recording of basal locomotor activity. Animals then received (via subcutaneous administration) (+)-MK801 hydrogen maleate at a dose of 0.3 mg/kg salt (RBI/Sigma Lot #108H4705 dissolved in saline, volume injection 1 cc/kg). The rats were immediately placed back into the locomotor activity cages, and activity was measured for 180 min.

Structure (SMILES)	MK-801-induced hyperactivity as measured by a decrease in ambulation	effect of MK801 on fine movements, a measure of stereotypies (rats)	effect on rear measures (rearing activity) (rats)	motor parameters recorded: ambulation, fine movement and rearing activity (rats, MK-801 0.3 mg/kg s.c. alone)
Cn1ncc(Br)c1-c1cccc(NC(=O)Nc2ccc(Cl)cc2)c1 [AR116081, N-[3-(4-bromo-2-methylpyrazol-3-yl)phenyl][(4-chlorophenyl)amino]carboxamide]	attenuated	attenuated but did not significantly reverse	No effects	
O=C(CCCN1CCC(O)(c2ccc(Cl)cc2)CC1)c1ccc(F)cc1 [Haloperidol]	attenuated	attenuated but did not significantly reverse	No effects	
C[C@]12N[C@H](Cc3ccccc31)c1ccccc12 [MK-801, (+)-MK801 hydrogen maleate]				significant increase
